The source of these data is patent US20180353445A1, “METHODS AND COMPOSITIONS RELATING TO PROTEASOME INHIBITOR RESISTANCE” (Whitehead Institute for Biomedical Research, priority 2017, published 2018).

Experiment [1] has as its system MCF7, HEK293 and T47D cells. Nature of the experiment: Viability of cells grown in glucose (glycolytic) vs galactose (Hi-OXPHOS). It is filed as cell-based, human. As to conditions: screen. The method, then:
FIGS. 40A-40D: Cancer cell metabolism alters sensitivity to elesclomol.
FIGS. 41A-41B: Cancer cell metabolism alters sensitivity to elesclomol.
FIGS. 51A-51D: Elesclomol preferentially targets cells in the Hi-OXPHOS state. […] The relative cell growth (color coded) was analyzed 72 hours post compound addition. Plotted are the mean SD of at least three replicas and the calculated EC50s (FIGS. 51B-51C). […] Reactive groups are indicated with a colored circle.
FIGS. 57A-57C: Elesclomol preferentially targets cells in the Hi-OXPHOS state. […] Analogs named compound 1-6. […] Plotted are the mean SD of at least three replicas and the calculated EC50s (FIG. 57A and FIG. 57C).

In experiment [2] the test system is T47D cells. Nature of the experiment: The glucose/galactose drug screen. Particulars: 10 mM Glucose or Galactose, Selleck anti cancer and natural product libraries. The experiment is classed as cell-based, human. The method, then:
We conducted a second set of drug screens to identify unique sensitivities conferred by the Hi-OXPHOS state using parental T47D breast cancer cells (without 19S subunit suppression). For this screen, we used the NPC and CDL libraries as they contained the greatest number of hits in the Lo19S screen. We tested over 800 compounds at multiple concentrations and measured their effects on relative cell growth/viability when cells were grown under aerobic glycolysis conditions (glucose-supplemented medium) or forced mitochondrial respiration conditions (galactose-supplemented medium).
The glucose/galactose drug screen—T47D cells growing in regular media were collected counted and after centrifugation cells were re-suspended in RPM1 media without glucose containing 10% dialyzed serum with the addition of either 10 mM glucose or 10 mM galactose, Cells were then plated at 1000 cells/well in 384-well opaque, white assay plates (Coming, N.Y.), 50 uL per well, and incubated overnight at 37°C./5% CO2. Application of the drug libraries and cell viability was executed as described above for the Lo19S drug screen.

The target in experiment [3] is T1, FDX1 (Homo sapiens, UniProt P10109).
T1 construct: made in house
T1 sequence (P10109 62-184): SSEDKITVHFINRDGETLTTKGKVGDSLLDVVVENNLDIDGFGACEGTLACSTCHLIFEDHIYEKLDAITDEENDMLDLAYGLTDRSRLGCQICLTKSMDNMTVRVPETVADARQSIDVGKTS
Nature of the experiment: In vitro Fe-S cluster assembly with reduced FDX1 (absorbance at 456 nm). It is filed as biochemical. As to conditions: x5 concentration relative to enzyme. The text has this:
FIGS. 47A-47C: Inhibition of Fe—S formation by elesclomol and variants (in-vitro). […] Note: “x(number) concentration” means that the indicated compound was present at 5 times the concentration of the enzyme.
(FIG. 53A) provides a schematic describing mitochondrial Fe—S cluster biosynthesis. The mitochondrial ISC (iron-sulfur cluster) core complex contains the scaffold protein ISCU and cysteine desulfurase (ACP-ISD11-NFS1)2. The latter catalyzes the conversion of cysteine to alanine and generates S° for iron sulfur cluster assembly. S° is reduced by FDX1. A [2Fe-2S] cluster is subsequently formed on ISCU. […] In vitro Fe—S cluster assembly was carried out with reduced. FDX1 as the reducing agent in the presence or absence of either 5× (green) or 10× (yellow) elesclomol (both relative to FDX1). Fe—S cluster formation was monitored by following the increase of absorbance at 456 nm. […] The red triangle denotes an NMR peak that became severely broadened. […] The [2Fe-2S] cluster in FDX1 is indicated by spheres.
The in vitro Fe—S cluster assembly was carried out with reduced FDX1 as the reducing agent and detected by following the increase of absorbance at 456 tun following the addition of either of 5× (green) or 10× (yellow, both relative to FDX1) compound-1. […] Fe—S formation was monitored by following the increase of absorbance at 456 nm. […] Cysteine desulfurase activity assay carried out with the indicated concentrations of elesclomol.

Experiment [4] concerns T47D cells. Nature of the experiment: Cell viability, T47D cells with doxycycline-inducible PSMD2 shRNA (KD) vs control. The experiment is classed as cell-based, human. Particulars: T47D cells, PSMD2 KD vs control. The procedure:
FIGS. 37A-37E: Subunit suppression results in highly specific drug sensitivity alteration. Schematic representation of the drug screen setup. (FIG. 37A) 147D cells harboring a doxycycline-inducible PSMD2 shRNA were grown in the presence or absence of doxycycline for 48 hr. Cells were then collected, washed, and plated in the absence of doxycycline for 24 hr prior to exposure different compounds. Relative cell numbers were measured 3 days later. […] (FIGS. 37C-37E) The relative viability of the PSMD2 knockdown (KD) versus the control was calculated for replica experiments and the log2 of the ratio is plotted for 349 compounds from the Selleck anti-cancer L3000 drug library that were tested in 4 concentrations (FIG. 37C), the Selleck natural product library (NPC) comprising 502 compounds in 5 doses (FIG. 37D), and the NIH bioactive compound library that includes 731 compounds in 4 doses (FIG. 37E). Specific compounds are annotated.
The effect of transient PSMD2 reduction on growth of T47D cells in the presence of different proteasome inhibitors (bortezomib, MLN9708, carfilzomib, oprozornib) was tested. T47D cells harboring a doxycycline inducible control shRNA (GFP) or a doxycycline-inducible PSMD2 shRNA (TurhoRFP) were incubated with doxycycline for 3 days. Cells were then split and grown in the absence of Dox and proteasome inhibitors were then added at various concentrations. Cells were maintained in culture and then counted.
For the generation of the T47D Tet-inducible PSMD2 knockdown cell line- the TRIPZ vector with an inducible shRNA targeting PSMD2 was purchased from Dhannacon (clone V3THS_403760). It was introduced to the T47D cells according to manufactures protocol and cells were selected with puromycin 1 μg/ml for one week. The cells were exposed to doxycycline for 24 hours and cells were FACS sorted for the top 10% of most RFP expressing cells (highest expression of shRNA). The cells were further cultured in the absence of doxycycline and PSMD2 knockdown was induced as specified in the relevant Examples. The TRIPZ control GFP vector was created by removing the turboRFP from the TRIPZ control vector by digestion with Agel and ClaI and replacing it with GFP amplified with primers flanking with Agel and Clal restriction sites.
Cell Viability Assay—Relative cell growth and survival were measured in 96-well microplate format in the shRNA experiments and in 384 well format in the drug toxicity assays, by using the fluorescent detection of resazurin dye reduction as an endpoint (544 nm excitation and 590 run emission). 2,500 cells in 96 wells format or 1,000 cells in 384 well format were plated 24 hours before compound exposure (for 72 hours or indicated time). Each analysis was performed at least with three replicas.

For experiment [5], the system named is T47D cells harboring a doxycycline inducible PSMD2 KD shRNA construct. Nature of the experiment: Viability of PSMD2 knockdown versus control T47D cells, dose response and combinations (CellTiter-Glo). It is filed as cell-based, human. As to conditions: T47D, transient PSMD2 suppression versus control. The procedure:
Cell viability was measured by CellTiter-Glot Luminescent Cell Viability Assay 72 hours after addition of the compounds to cells.
Cell viability was measured by CellTiter-Glo® Luminescent Cell Viability Assay 72 hours after addition of the compounds were added to cells.
Cell viability was measured by CellTiter-Glolk Luminescent Cell Viability Assay 72 hours after addition of the compounds to cells.
To directly test whether altered cellular metabolism can modulate the sensitivity of cancer cells to proteasome inhibitors, we engineered the breast cancer cell line T47D into Lo19S and increased OXPHOS states. Initially, we reconstituted the Lo19S state by transient suppression of the PSMD2 subunit of the 19S complex using an inducible shRNA.
To induce a high OXPHOS (Hi-OXPHOS) state, we changed the carbon source in the cell culture media from glucose to galactose, which is poorly fermentable. This method has been previously shown to drive glutamine utilization by mitochondria and to thus increase mitochondrial respiration (Gohil et al., 2010). […] We reasoned that the Hi-OXPHOS signature we identified in Lo19S patient tumors may cooperate with the Lo19S state to further promote the ability of the cells to withstand proteotoxic stress.
Cell viability—where indicated relative cell number following different drug treatment was conducted by plating cells at 1000 cells/well in 384 well plates. Indicated concentrations of compounds were added 24 hour after plating at least in triplicate for each condition. Viability was measured 72 hours after drug addition using cell titer-glo (Promega) according to manufactures protocol. Same protocol was applied for the experiments conducted for the Lo19S T47D, MCF7 and T47D in the context of altered carbon source only the cells were plated at 1000 cells/well in RPMI media (without glucose and with dialyzed serum) containing either 10 mM Glucose or lOmM galactose.
(ATP-based viability assays read luminescence as a measure of living cells.)

Entries after “also recorded” stand apart in the source; their conditions may differ.

In the case of `O=C(/C=C/c1cccnc1)NCCCCC1CCN(C(=O)c2ccccc2)CC1` [APO866], the “targeting of glycolytic cancer cells” value in experiment [1] is listed as “preferentially targets glycolytic cancer cells”. For the same molecule, the “relative viability change of cells grown in glucose versus galactose” value in experiment [2] is “predominantly more sensitive; also recorded: strongest hits in this screen”.
On to `CN(NC(=O)CC(=O)NN(C)C(=S)c1ccccc1)C(=S)c1ccccc1` [SAT-4783], for which the “in vitro formation of Fe-S clusters mediated by FDX1” value in experiment [3] is on record as “inhibition”.
With `CC(C)C[C@H](NC(=O)CNC(=O)c1cc(Cl)ccc1Cl)B(O)O` [ixazomib], the “fold increase in EC50 induced by transient PSMD2 knockdown (KD)” value in experiment [4] is 50-100 fold. Also, in experiment [5], the “increase of proliferation inhibition EC50 on inducing the Lo19S state” value is recorded as ~4 fold.
